Test results taken from publication PMC9352307 (Biochemistry, 2022).

Columns and labels:
[1] = biological target: T1, NADP^+-dependent malic enzyme 1 (ME1) (Homo sapiens, UniProt P48163); experiment: X-ray crystal structure; assay type: biochemical
T1 sequence (P48163 1-572): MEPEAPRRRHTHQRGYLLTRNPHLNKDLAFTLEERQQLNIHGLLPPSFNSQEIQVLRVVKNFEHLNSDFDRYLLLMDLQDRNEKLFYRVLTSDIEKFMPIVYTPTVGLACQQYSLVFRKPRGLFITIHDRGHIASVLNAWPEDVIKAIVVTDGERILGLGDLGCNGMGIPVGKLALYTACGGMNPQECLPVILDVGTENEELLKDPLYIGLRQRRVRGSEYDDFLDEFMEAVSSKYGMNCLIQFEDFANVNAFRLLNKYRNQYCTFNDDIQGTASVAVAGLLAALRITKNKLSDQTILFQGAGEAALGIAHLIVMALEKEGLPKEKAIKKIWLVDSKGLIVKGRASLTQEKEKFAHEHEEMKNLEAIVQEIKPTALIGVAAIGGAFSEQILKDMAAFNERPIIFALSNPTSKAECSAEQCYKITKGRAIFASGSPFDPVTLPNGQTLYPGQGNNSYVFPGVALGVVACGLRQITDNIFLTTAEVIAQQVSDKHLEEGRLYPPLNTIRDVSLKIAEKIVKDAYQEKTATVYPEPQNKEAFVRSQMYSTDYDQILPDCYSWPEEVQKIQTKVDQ

[2] = biological target: T1, NADP^+-dependent malic enzyme 1 (ME1); experiment: Michaelis–Menten enzyme kinetics; assay type: biochemical

Row | IC50 [1] [nM] | SMILES | Michaelis-Menten enzyme kinetics [2]
1 | 730 | CCCc1nc2c(C)ccn(Cc3ccc4nc(-c5ccccc5-c5nnn[nH]5)sc4c3)c-2n1 [AS1134900, 6-[(7-methyl-2-propylimidazo[4,5-b]pyridin-4-yl)methyl]-2-[2-(1H-tetrazol-5-yl)phenyl]-1,3-benzothiazole] | 
2 |  | NC(=O)c1ccc[n+]([C@@H]2O[C@H](COP(=O)(O)OP(=O)(O)OC[C@H]3O[C@@H](n4cnc5c(N)ncnc54)[C@H](OP(=O)(O)O)[C@@H]3O)[C@@H](O)[C@H]2O)c1 [NADP^+] | enzyme kinetics were examined using various concentrations of malate or NADP^+
3 |  | O=C(O)CC(O)C(=O)O (stereo not drawn) [malate] | Michaelis–Menten plot of ME1 activity in the presence of AS1134900 vs DL-malate
